According to US6689343B1, “Hemostatic and acid etch compositions containing sucralose” (Ultradent Products, Inc., priority 2002, dated 2004):

Experiment: Storage stability of sucralose in the acidic composition
Assay type: physicochemical
Conditions: highly acidic in water

## OC[C@H]1O[C@H](O[C@]2(CCl)O[C@H](CCl)[C@@H](O)[C@@H]2O)[C@H](O)[C@@H](O)[C@H]1Cl [sucralose, 1,6-dichloro-1,6-dideoxy-β-D-fructo-furanosyl-4-chloro-4-deoxy-α-D-galactopyranoside]
  stability in the presence of hemostatic or dental etching agents: stable
